Measurements from PMC5914168 (ChemMedChem, 2017).
Several values for one entry are separate records, joined by “and”; a condition that tells them apart may be missing. Equal values may be shown once. Read-outs that look alike come from different tables or passages of the source.

Experiments:
[1] = molecular target: STK16 kinase domain (13-305) (Homo sapiens, UniProt O75716); assay: TR-FRET ligand binding displacement assay, STK16
[2] = molecular target: BMP2K kinase domain (38-345) (Homo sapiens, UniProt Q9NSY1); assay: TR-FRET ligand binding displacement assay, BMP2K
Sequence of BMP2K kinase domain (38-345) (Q9NSY1 38-345): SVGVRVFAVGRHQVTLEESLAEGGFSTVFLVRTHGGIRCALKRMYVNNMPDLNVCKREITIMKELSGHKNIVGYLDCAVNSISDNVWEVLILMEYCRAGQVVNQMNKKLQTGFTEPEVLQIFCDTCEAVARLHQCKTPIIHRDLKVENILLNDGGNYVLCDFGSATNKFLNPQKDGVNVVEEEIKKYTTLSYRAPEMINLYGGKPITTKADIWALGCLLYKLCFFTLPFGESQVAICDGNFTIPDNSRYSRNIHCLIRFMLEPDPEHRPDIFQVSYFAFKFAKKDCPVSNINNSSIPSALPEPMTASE

[3] = molecular target: AAK1 kinase domain (31-396) (Homo sapiens, UniProt Q2M2I8); assay: TR-FRET ligand binding displacement assay, AAK1
Sequence of AAK1 kinase domain (31-396) (Q2M2I8 31-396): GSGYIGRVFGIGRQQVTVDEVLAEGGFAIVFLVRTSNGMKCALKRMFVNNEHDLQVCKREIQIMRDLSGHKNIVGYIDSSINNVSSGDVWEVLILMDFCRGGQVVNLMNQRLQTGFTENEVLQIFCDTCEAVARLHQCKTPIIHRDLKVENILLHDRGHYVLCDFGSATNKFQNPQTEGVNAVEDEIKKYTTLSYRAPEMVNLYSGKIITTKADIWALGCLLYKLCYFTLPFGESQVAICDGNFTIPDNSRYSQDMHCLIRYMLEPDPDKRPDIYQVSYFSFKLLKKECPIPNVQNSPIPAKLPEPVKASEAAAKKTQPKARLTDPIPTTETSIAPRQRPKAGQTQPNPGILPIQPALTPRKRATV

[4] = molecular target: T1, N-terminal Nano Luciferase/GAK fusion (NL-GAK) in HEK293 cells (Homo sapiens, UniProt O14976); assay: GAK nanoBRET cellular target engagement assay; details: for IC50: NanoBRET GAK IC50, HEK293 cells, 8-point dose response, average of 2 experiments
T1 sequence (O14976 1-1311): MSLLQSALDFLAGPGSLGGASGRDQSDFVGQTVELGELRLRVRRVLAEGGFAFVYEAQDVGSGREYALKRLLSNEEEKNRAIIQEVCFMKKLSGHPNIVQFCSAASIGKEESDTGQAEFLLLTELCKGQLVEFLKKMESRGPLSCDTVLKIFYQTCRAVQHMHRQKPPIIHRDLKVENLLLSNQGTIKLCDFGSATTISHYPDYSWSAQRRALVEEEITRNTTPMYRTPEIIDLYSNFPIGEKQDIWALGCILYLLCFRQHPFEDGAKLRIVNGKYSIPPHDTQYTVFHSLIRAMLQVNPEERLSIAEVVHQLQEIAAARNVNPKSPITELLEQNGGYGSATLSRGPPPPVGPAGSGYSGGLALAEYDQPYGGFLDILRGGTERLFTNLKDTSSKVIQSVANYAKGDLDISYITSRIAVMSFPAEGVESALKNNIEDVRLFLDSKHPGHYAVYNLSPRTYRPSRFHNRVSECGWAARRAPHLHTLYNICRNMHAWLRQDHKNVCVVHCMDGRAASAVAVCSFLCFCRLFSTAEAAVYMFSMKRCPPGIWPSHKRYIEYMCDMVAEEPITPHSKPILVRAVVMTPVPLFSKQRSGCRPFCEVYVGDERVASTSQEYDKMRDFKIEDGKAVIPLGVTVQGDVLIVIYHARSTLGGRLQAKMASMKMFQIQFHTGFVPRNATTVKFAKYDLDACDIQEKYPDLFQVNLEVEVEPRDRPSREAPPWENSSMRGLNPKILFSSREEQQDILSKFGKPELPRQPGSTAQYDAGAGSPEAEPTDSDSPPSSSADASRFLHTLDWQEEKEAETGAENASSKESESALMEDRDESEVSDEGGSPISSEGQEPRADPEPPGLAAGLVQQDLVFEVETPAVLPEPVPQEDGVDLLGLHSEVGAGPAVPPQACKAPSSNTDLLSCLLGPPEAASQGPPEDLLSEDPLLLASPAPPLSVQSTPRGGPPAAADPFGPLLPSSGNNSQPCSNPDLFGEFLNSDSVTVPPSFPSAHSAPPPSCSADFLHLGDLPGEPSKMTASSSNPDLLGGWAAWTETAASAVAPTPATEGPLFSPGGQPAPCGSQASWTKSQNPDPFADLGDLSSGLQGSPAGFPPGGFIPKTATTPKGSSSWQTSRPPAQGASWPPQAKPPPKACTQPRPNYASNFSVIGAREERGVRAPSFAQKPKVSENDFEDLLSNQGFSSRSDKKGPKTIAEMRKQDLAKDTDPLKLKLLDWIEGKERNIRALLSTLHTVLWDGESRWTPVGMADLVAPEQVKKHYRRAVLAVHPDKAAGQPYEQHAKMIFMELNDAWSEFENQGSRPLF

[5] = molecular target: T2, GAK kinase domain (12-347) (Homo sapiens, UniProt O14976); assay: TR-FRET ligand binding displacement assay, GAK; details: for fold drop in GAK potency: relative to 1; for NAK selectivity (ratio of GAK Ki and Ki of nearest NAK family member): selectivity against the nearest NAK family member
T2 sequence (O14976 12-347): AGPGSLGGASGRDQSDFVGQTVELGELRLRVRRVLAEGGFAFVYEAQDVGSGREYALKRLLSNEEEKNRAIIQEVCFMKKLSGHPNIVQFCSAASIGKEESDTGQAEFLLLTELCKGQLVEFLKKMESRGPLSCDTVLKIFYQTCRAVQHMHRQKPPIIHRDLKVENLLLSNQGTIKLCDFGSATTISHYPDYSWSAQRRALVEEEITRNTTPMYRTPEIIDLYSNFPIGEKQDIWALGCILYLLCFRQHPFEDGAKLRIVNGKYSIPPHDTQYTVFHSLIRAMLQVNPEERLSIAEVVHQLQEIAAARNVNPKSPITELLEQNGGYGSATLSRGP

[6] = read-out: Binding displacement assay Ki BMP2K, TR-FRET, 16-point dose response

Sequence of STK16 kinase domain (13-305) (O75716 13-305): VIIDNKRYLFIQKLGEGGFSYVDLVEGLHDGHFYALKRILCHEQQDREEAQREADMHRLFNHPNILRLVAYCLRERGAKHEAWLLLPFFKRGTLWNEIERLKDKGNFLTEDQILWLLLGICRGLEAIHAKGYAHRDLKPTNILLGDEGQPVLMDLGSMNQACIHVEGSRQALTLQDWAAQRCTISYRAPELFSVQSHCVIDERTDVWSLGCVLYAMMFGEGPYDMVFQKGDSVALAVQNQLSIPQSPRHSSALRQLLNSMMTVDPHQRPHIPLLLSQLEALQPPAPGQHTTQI

Compound	Ki [1]	Ki [2]	Ki [3]	Ki [5]	NAK selectivity (ratio of GAK Ki and Ki of nearest NAK family member) [5]	further results
COc1cc(Nc2ccnc3ccc(C#N)cc23)cc(OC)c1OC [Compound 46, 4-((3,4,5-Trimethoxyphenyl)amino)quinoline-6-carbonitrile]						IC50 [4]: ~0.35 µM and 0.35 µM
COc1cc(Nc2ccnc3cc(C(F)(F)F)ccc23)cc(OC)c1OC [Compound 51, 7-(Trifluoromethyl)-N-(3,4,5-trimethoxyphenyl)quinolin-4-amine]					15000	
CS(=O)(=O)c1cccc(Nc2ccnc3ccc(C(F)(F)F)cc23)c1 [Compound 37, N-(3-(Methylsulfonyl)phenyl)-6-(trifluoromethyl)quinolin-4-amine]						STK16 affinity relative to GAK [1]: ≤ 2 fold
COc1cc(Nc2ncnc3ccc(C(F)(F)F)cc23)cc(OC)c1 [Compound 14, N-(3,5-Dimethoxyphenyl)-6-(trifluoromethyl)quinazolin-4-amine]					26	Ki ([1]; read-out: Binding displacement assay Ki STK16, TR-FRET, 16-point dose response): 8 µM; Ki [2, 6]: > 100 µM; Ki ([3]; read-out: Binding displacement assay Ki AAK1, TR-FRET, 16-point dose response): > 100 µM
COc1cc(Nc2ccnc3ccc(C(F)(F)F)cc23)cc(OC)c1OC [Compound 1, 6-(Trifluoromethyl)-N-(3,4,5-trimethoxyphenyl)quinolin-4-amine]	17 µM	> 100 µM	54 µM			
COc1cc(Nc2ccnc3ccc(F)cc23)cc(OC)c1OC [Compound 42, 6-Fluoro-N-(3,4,5-trimethoxyphenyl)quinolin-4-amine]	> 100 µM	> 100 µM	83 µM			
COc1ccc2nccc(Nc3cc(OC)c(OC)c(OC)c3)c2c1 [Compound 48, 6-Methoxy-N-(3,4,5-trimethoxyphenyl)quinolin-4-amine]	> 100 µM	> 100 µM	> 100 µM			
COc1cc(Nc2ccnc3cc(C#N)ccc23)cc(OC)c1OC [Compound 52, 4-((3,4,5-Trimethoxyphenyl)amino)quinoline-7-carbonitrile]		> 100 µM			9300	
6,7-Dimethoxy-N-(3,4,5-trimethoxyphenyl)quinolin-4-amine [Compound 57]						Ki [2, 6]: 19 µM
CC(C)(C)Oc1ccc(Nc2ccnc3ccc(C(F)(F)F)cc23)cc1 [Compound 39, N-(4-(tert-Butoxy)phenyl)-6-(trifluoromethyl)quinolin-4-amine]						range of affinity across all four NAK family kinases ([5]; GAK, AAK1, BMP2K, STK16): ≤ 8 fold
COc1ccc(OC)c(Nc2ccnc3ccc(C(F)(F)F)cc23)c1 [Compound 7, N-(2,5-Dimethoxyphenyl)-6-(trifluoromethyl)quinolin-4-amine]	58 µM	> 100 µM	80 µM	0.14 µM	420	
COc1cc(Nc2ncnc3ccc(C(F)(F)F)cc23)cc(OC)c1OC [Compound 13, 6-(Trifluoromethyl)-N-(3,4,5-trimethoxyphenyl)quinazolin-4-amine]					73	
COc1ccc2c(Nc3cc(OC)c(OC)c(OC)c3)ccnc2c1 [Compound 50, 7-Methoxy-N-(3,4,5-trimethoxyphenyl)quinolin-4-amine]	> 100 µM	> 100 µM	58 µM		22000	
COc1ccc(Nc2ncnc3ccc(C(F)(F)F)cc23)cc1 [Compound 15, N-(4-Methoxyphenyl)-6-(trifluoromethyl)quinazolin-4-amine]		> 100 µM			1.5	

Second part, led by results:

Ki [1]	Ki [2]	Ki [3]	Ki [5]	NAK selectivity (ratio of GAK Ki and Ki of nearest NAK family member) [5]	Compound	further results
> 100 µM	> 100 µM	44 µM			COc1cc(Nc2ccnc3cc(F)ccc23)cc(OC)c1OC [Compound 43, 7-Fluoro-N-(3,4,5-trimethoxyphenyl)quinolin-4-amine]	
52 µM	85 µM	34 µM	0.054 µM	640	COc1cc(Nc2ccnc3ccc(C(F)(F)F)cc23)cc(OC)c1 [Compound 4, N-(3,5-Dimethoxyphenyl)-6-(trifluoromethyl)quinolin-4-amine]	fold drop in GAK potency [5]: 10 fold
	11 µM				COc1ccccc1Nc1ccnc2ccc(C(F)(F)F)cc12 [Compound 10, N-(2-Methoxyphenyl)-6-(trifluoromethyl)quinolin-4-amine]	
70 µM	> 100 µM	71 µM	0.86 µM	81	COc1ccc(Nc2ccnc3ccc(C(F)(F)F)cc23)c(OC)c1 [Compound 6, N-(2,4-Dimethoxyphenyl)-6-(trifluoromethyl)quinolin-4-amine]	
> 100 µM	> 100 µM	> 100 µM		>2500	COc1cc(Nc2ccnc3ccccc23)cc(OC)c1OC [Compound 41, N-(3,4,5-Trimethoxyphenyl)quinolin-4-amine]	fold drop in GAK potency [5]: 10 fold; IC50 [4]: 0.78 µM; fold decrease in cellular potency ([4]; nanoBRET, relative to 1): 4 fold
	> 100 µM	> 100 µM	0.0081 µM		COc1cc(Nc2ccnc3ccc(C(C)(C)C)cc23)cc(OC)c1OC [Compound 45, 6-(tert-Butyl)-N-(3,4,5-trimethoxyphenyl)quinolin-4-amine]	IC50 [4]: 0.33 µM
	> 100 µM				COc1cc(Nc2ccnc3ccc(S(C)(=O)=O)cc23)cc(OC)c1OC [Compound 47, 6-(Methylsulfonyl)-N-(3,4,5-trimethoxyphenyl)quinolin-4-amine]	
24 µM	44 µM	24 µM	0.058 µM	420	COc1ccc(Nc2ccnc3ccc(C(F)(F)F)cc23)cc1OC [Compound 5, N-(3,4-Dimethoxyphenyl)-6-(trifluoromethyl)quinolin-4-amine]	fold drop in GAK potency [5]: 10 fold
1.5 µM	0.68 µM	0.26 µM	0.4 µM		COc1cc2nccc(Nc3cccc(C(C)=O)c3)c2cc1OC [Compound 56, 1-(3-((6,7-dimethoxyquinolin-4-yl)amino)phenyl)ethan-1-one]	fold reduction in GAK activity ([5]; relative to 49): 100 fold
19 µM	75 µM	56 µM	0.73 µM	26	COc1ccc(Nc2ccnc3ccc(C(F)(F)F)cc23)cc1 [Compound 8, N-(4-Methoxyphenyl)-6-(trifluoromethyl)quinolin-4-amine]	fold drop in GAK potency [5]: 100 fold
	56 µM			14	FC(F)(F)c1ccc2nccc(Nc3ccc4c(c3)OCCO4)c2c1 [Compound 12, N-(2,3-Dihydrobenzo[b][1,4]dioxin-6-yl)-6-(trifluoromethyl)quinolin-4-amine]	
19 µM	2.4 µM	0.9 µM	0.0035 µM	260	C#Cc1cccc(Nc2ccnc3cc(OC)c(OC)cc23)c1 [Compound 55, N-(3-Ethynylphenyl)-6,7-dimethoxyquinolin-4-amine]	
